9 molecules from patent publication US12454507B2, “Compounds having a fungicidal activity, their agronomic compositions and use thereof for the control of phytopathogenic fungi” (ISAGRO S.p.A., priority 2019, dated 2025) can be followed below.

Each structure is given as a SMILES string.

For one assay, the system named is Phytophthora infestans. The format is cell-based. Particulars: for In vitro antifungal activity, 50% effective doses (EC50): Phytophthora infestans, 20° C., 72 hours (96 or 120 when necessary).
Another assay concerns Sclerotinia sclerotiorum. The experiment in a line: Antifungal activity in vitro (growth inhibition, 96-well absorbance). Conditions: 20° C., 72 hours (96 or 120 when necessary). The format is cell-based.
In a further assay the test system is Zymoseptoria tritici. The assay is described as above. The format is cell-based. Conditions: 20° C., 72 hours (96 or 120 when necessary).
The subject of the next assay is Magnaporthe oryzae. The format is cell-based. Particulars: for In vitro antifungal activity, 50% effective doses (EC50): Magnaporthe oryzae, 20° C., 72 hours (96 or 120 when necessary).
The next assay deals with Parastagonospora nodorum. The experiment in a line: Antifungal activity in vitro (growth inhibition, 96-well absorbance). Type of assay: cell-based. Conditions: 20° C., 72 hours (96 or 120 when necessary).
The subject of the next assay is Pythium ultimum. The format is cell-based. Particulars: for In vitro antifungal activity, 50% effective doses (EC50): Pythium ultimum, 20° C., 72 hours (96 or 120 when necessary).
A further assay has as its system Cercospora beticola. The assay can be described thus: Antifungal activity in vitro (growth inhibition, 96-well absorbance). The format is cell-based. Particulars: 20° C., 72 hours (96 or 120 when necessary).
In another assay the test system is Plasmopara viticola. The assay can be described thus: Preventive activity (7 days) against Plasmopara viticola on vines. The format is in vivo. Conditions: leaf spray, inoculation 7 days after treatment, vine Merlot, reduction of diseased leaf area vs untreated (100=complete effectiveness). As for the experimental part:
Leaves of vine plants, Merlot variety, grown in pots, in a conditioned environment (20±1° C., 70% R.H.) were treated by spraying both sides of the leaves with the products in question. 7 days after the treatment, the plants were inoculated with an aqueous suspension of Plasmopara viticola spores (200,000 spores/cc) by spraying both sides of the leaves with a compressed air gun. After remaining 24 hours in a humidity-saturated environment, at 21° C., the plants were transferred for the incubation period (7 days) in a conditioned environment with 70% R.H. and at 24° C. After this period of time, the external symptoms of the pathogen appeared and it was therefore possible to evaluate the intensity of the infection.

Another assay relates to Puccinia Recondita. The assay can be described thus: Preventive fungicidal activity (5 days) against Puccinia recondita on wheat. Conditions: wheat Salgemma, inoculation 5 days after treatment; for P5 Activity NT: parts developed during the test (NT); for P5 Activity T: parts treated directly (T). Type of assay: in vivo. As for the experimental part:
Leaves of wheat plants of the […] variety, grown in pots in a conditioned environment at 20° C. and 70% of Relative Humidity (RH), were treated by spraying both sides of the leaves with the compound under examination dispersed in a hydroacetone solution at 20% by volume of acetone. […] After spraying, the plants were kept in a humidity-saturated environment at a temperature ranging from 18 to 24° C. for the incubation period of the fungus (1 day). At the end of this period, the plants were put in a greenhouse with a relative humidity (RH) of 70% and at a temperature of 18-24° C. for 14 days At the end of this period, the external symptoms of the pathogen appeared and it was therefore possible to proceed with the visual evaluation of the intensity of the infection, both on the parts treated directly with the products (T) and on the parts developed during the implementation of the test (NT).

For a further assay, the system named is Phakopsora pachyrhizi. The assay can be described thus: Preventive fungicidal activity (5 days) against Phakopsora pachyrhizi on soya. The format is in vivo. Particulars: for P5 Activity: soya Zora, inoculation 5 days after treatment; for control of the pathogen: dose of 125 ppm.
For the next assay, the system named is Bipolaris sorokiniana. The assay can be described thus: Antifungal activity in vitro (growth inhibition, 96-well absorbance). The format is cell-based. Conditions: 20° C., 72 hours (96 or 120 when necessary).
In a further assay the test system is Venturia inaequalis. The format is cell-based. Particulars: for In vitro antifungal activity, 50% effective doses (EC50): Venturia inaequalis, 20° C., 72 hours (96 or 120 when necessary).
In a further assay the test system is Alternaria alternata. The format is cell-based. Particulars: 20° C., 72 hours (96 or 120 when necessary).

Turning to `CCCCC(CC)COC(=O)[C@H](C)OC(=O)[C@H](C)NC(=O)c1cccc(NC=O)c1O` (stereo partly shown) [Compound 239], the “In vitro antifungal activity, 50% effective doses (EC50)” value in the assay with Phytophthora infestans came out at 1.62 µg/mL; in the assay with Sclerotinia sclerotiorum, 0.081 µg/mL; in the assay with Zymoseptoria tritici it was 0.067 µg/mL; in the assay on Magnaporthe oryzae it was 0.64 µg/mL; in the assay on Parastagonospora nodorum, 0.006 µg/mL; in the assay with Pythium ultimum, 2.78 µg/mL.
Take `CCCCCCCC(C)OC(=O)[C@H](C)NC(=O)c1cccc(NC=O)c1O` (stereo partly drawn) [Compound 46, (2S)-2-(3-formamide-salicylamide)-propanoate of nonan-2-yl]: the “In vitro antifungal activity, 50% effective doses (EC50)” value is 0.04 µg/mL with Phytophthora infestans; 1.34 µg/mL with Cercospora beticola; 0.02 µg/mL in the assay on Sclerotinia sclerotiorum; 0.02 µg/mL in the assay on Zymoseptoria tritici; 2.68 µg/mL in the assay with Bipolaris sorokiniana; 0.001 µg/mL in the assay with Parastagonospora nodorum. Further, the “In vitro antifungal activity, 50% effective doses (EC50)” value in the assay on Venturia inaequalis amounted to 0.25 µg/mL. Also, the P7Activity in the assay on Plasmopara viticola (30 ppm) and in the assay with Plasmopara viticola (125 ppm) was 100% throughout. Moreover, the “P5 Activity NT” value with Puccinia Recondita (125 ppm) was 90%; with Puccinia Recondita (250 ppm) it was 99%. For the same molecule, the “P5 Activity T” value in the assay with Puccinia Recondita (125 ppm) came to 98%; in the assay with Puccinia Recondita (250 ppm) it was 100%. For the same molecule, the “P5 Activity” value amounted to 98% in the assay on Phakopsora pachyrhizi (15 ppm) and 99% in the assay on Phakopsora pachyrhizi (30 ppm). In the assay with Phakopsora pachyrhizi, the “control of the pathogen” value is given as “complete control”.
`COc1ccnc(C(=O)N[C@@H](C)C(=O)O[C@@H](C)C(c2ccc(F)cc2)c2ccc(F)cc2)c1OC(C)=O` [CR1, Florypicoxamid, reference compound]: the P7Activity in the assay with Plasmopara viticola (30 ppm) turned out to be 10%; with Plasmopara viticola (125 ppm), 40%. The results for the “P5 Activity NT” value with Puccinia Recondita (125 ppm) and in the assay with Puccinia Recondita (250 ppm) were 90% and 100%, respectively. Moreover, the figures for the “P5 Activity T” value with Puccinia Recondita (125 ppm) and with Puccinia Recondita (250 ppm) were 99% and 100%, respectively. For the same molecule, the “P5 Activity” value with Phakopsora pachyrhizi (15 ppm) and in the assay with Phakopsora pachyrhizi (30 ppm) was 100% in each case.
On to `CCCCCCC[C@H](C)OC(=O)[C@H](C)NC(=O)c1cccc(NC=O)c1O` [Compound 249], for which the P7Activity with Plasmopara viticola (30 ppm) and in the assay with Plasmopara viticola (125 ppm) was 100% each time. For the same molecule, the entries for the “P5 Activity NT” value in the assay on Puccinia Recondita (125 ppm) and in the assay on Puccinia Recondita (250 ppm) were 95% and 100%, respectively. In addition, the “P5 Activity T” value in the assay with Puccinia Recondita (125 ppm) is recorded as 99%; in the assay on Puccinia Recondita (250 ppm), 100%. In addition, the “P5 Activity” value with Phakopsora pachyrhizi (15 ppm) was determined as 98%; in the assay on Phakopsora pachyrhizi (30 ppm), 100%. Also, the “control of the pathogen” value in the assay on Phakopsora pachyrhizi is reported as “complete control”.
As for `CCCCOC(=O)[C@H](C)OC(=O)[C@H](C)NC(=O)c1cccc(NC=O)c1O` [Compound 236], the “In vitro antifungal activity, 50% effective doses (EC50)” value amounted to 1.49 µg/mL with Phytophthora infestans; 8.64 µg/mL in the assay with Cercospora beticola; 0.18 µg/mL in the assay on Sclerotinia sclerotiorum; 0.095 µg/mL in the assay on Zymoseptoria tritici; 0.79 µg/mL in the assay on Magnaporthe oryzae; 8.0 µg/mL in the assay on Bipolaris sorokiniana. The “In vitro antifungal activity, 50% effective doses (EC50)” value with Parastagonospora nodorum worked out at 0.009 µg/mL; in the assay on Venturia inaequalis, 1.77 µg/mL.
Turning to `C[C@H](NC(=O)c1cccc(NC=O)c1O)C(=O)O[C@@H](C)C(=O)OCc1ccccc1` [Compound 248], the “In vitro antifungal activity, 50% effective doses (EC50)” value was 1.14 µg/mL in the assay on Phytophthora infestans, 0.17 µg/mL in the assay with Zymoseptoria tritici and 0.008 µg/mL in the assay with Parastagonospora nodorum.
In the case of `CC(C)C(=O)OCOc1c(NC=O)cccc1C(=O)N[C@@H](C)C(=O)O[C@@H](C)C(c1ccc(F)cc1)c1ccc(F)cc1` [Compound 156, (2S)-2-[3-formamide-2-(methoxy-(2-methyl)propanoate)-benzamide] of (2S)-1,1-bis(4-fluorophenyl)propan-2-yl], the P7Activity in the assay on Plasmopara viticola (30 ppm) and in the assay on Plasmopara viticola (125 ppm) was 100% in each case. Besides, the “P5 Activity NT” value is reported as 93% in the assay on Puccinia Recondita (125 ppm) and 100% with Puccinia Recondita (250 ppm). Besides, the “P5 Activity T” value in the assay with Puccinia Recondita (125 ppm) was determined as 98%; in the assay with Puccinia Recondita (250 ppm) it was 100%. The “P5 Activity” value in the assay on Phakopsora pachyrhizi (15 ppm) and with Phakopsora pachyrhizi (30 ppm) was 100% each time. The “control of the pathogen” value with Phakopsora pachyrhizi is “complete control”.
On to `C[C@H](NC(=O)c1ccccc1O)C(=O)O[C@@H](C)C(c1ccc(F)cc1)c1ccc(F)cc1` [CR2, reference compound], for which the “In vitro antifungal activity, 50% effective doses (EC50)” value in the assay on Cercospora beticola came to 0.48 µg/mL; with Sclerotinia sclerotiorum, 5.38 µg/mL; with Zymoseptoria tritici it was 0.14 µg/mL; in the assay with Alternaria alternata it was 7.57 µg/mL; in the assay with Bipolaris sorokiniana it was 3.6 µg/mL; in the assay on Parastagonospora nodorum it was 0.24 µg/mL.
Consider `C[C@H](NC(=O)c1cccc(NC=O)c1O)C(=O)O[C@@H](C)C(c1ccc(F)cc1)c1ccc(F)cc1` [Compound 165, (2S)-2-(3-formamide-salicylamide) propanoate of (2S)-1,1-bis(4-fluorophenyl) propan-2-yl], for which the “in vitro antifungal activity (in words)” value in the assay with Phytophthora infestans (P. infestans), in the assay with Magnaporthe oryzae (M. oryzae), in the assay on Venturia inaequalis (V. inaequalis) and in the assay with Pythium ultimum (P. ultimum) was “active” throughout. Moreover, the “In vitro antifungal activity, 50% effective doses (EC50)” value was found to be 0.05 µg/mL with Phytophthora infestans; 0.19 µg/mL with Cercospora beticola; 0.01 µg/mL with Sclerotinia sclerotiorum; 0.007 µg/mL in the assay with Zymoseptoria tritici; 0.33 µg/mL in the assay with Alternaria alternata; 0.2 µg/mL with Magnaporthe oryzae. Moreover, the “In vitro antifungal activity, 50% effective doses (EC50)” value stood at 0.11 µg/mL with Bipolaris sorokiniana, 0.01 µg/mL in the assay on Parastagonospora nodorum, 0.18 µg/mL in the assay on Venturia inaequalis and 1.54 µg/mL with Pythium ultimum. Besides, the P7Activity in the assay on Plasmopara viticola (30 ppm) and with Plasmopara viticola (125 ppm) was 100% each time. In addition, the “P5 Activity NT” value in the assay with Puccinia Recondita (125 ppm) came out at 88%; in the assay on Puccinia Recondita (250 ppm), 100%. The “P5 Activity T” value in the assay on Puccinia Recondita (125 ppm) is reported as 95%; in the assay on Puccinia Recondita (250 ppm), 100%. The “P5 Activity” value is 99% in the assay on Phakopsora pachyrhizi (15 ppm) and 100% in the assay on Phakopsora pachyrhizi (30 ppm). Also, in the assay with Phakopsora pachyrhizi, the “control of the pathogen” value is reported as “complete control”.
